This passage reports inhibition results from patent US12686668B2, “Leukotriene synthesis inhibitors” (Naegis Pharmaceuticals Inc., priority 2019, dated 2026).

Test [1] deals with T1, recombinant human leukotriene A4 hydrolase enzyme (Homo sapiens, UniProt P09960).
T1 construct: purchased Cayman Chemical 10007817
T1 sequence (P09960 1-611): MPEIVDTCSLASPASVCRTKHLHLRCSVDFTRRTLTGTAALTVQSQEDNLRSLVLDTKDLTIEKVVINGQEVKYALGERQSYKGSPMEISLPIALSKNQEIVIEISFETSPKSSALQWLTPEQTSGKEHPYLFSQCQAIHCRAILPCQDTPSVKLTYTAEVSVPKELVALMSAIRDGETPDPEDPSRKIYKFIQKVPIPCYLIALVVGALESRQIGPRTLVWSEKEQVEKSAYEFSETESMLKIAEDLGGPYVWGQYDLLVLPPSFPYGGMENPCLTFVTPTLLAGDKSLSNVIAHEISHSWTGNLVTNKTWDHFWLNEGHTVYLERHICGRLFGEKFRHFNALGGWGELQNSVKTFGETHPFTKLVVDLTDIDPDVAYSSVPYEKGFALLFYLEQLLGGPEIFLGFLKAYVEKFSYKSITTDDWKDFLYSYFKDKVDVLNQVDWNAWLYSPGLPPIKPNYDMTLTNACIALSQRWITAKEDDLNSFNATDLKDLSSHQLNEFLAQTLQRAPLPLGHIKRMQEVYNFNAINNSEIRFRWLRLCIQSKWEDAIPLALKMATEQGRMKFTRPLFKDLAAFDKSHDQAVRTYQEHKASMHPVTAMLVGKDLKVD
Description: Amino-peptidase assay, alanine-4-nitroanalide. It counts as biochemical. The note with it: negative values = augmented peptidase activity, read-out: % Inhibition aminopeptidase-Alanine-4-nitroanalide activity of LTA4H (3 μM). On the procedure:
A series of compound concentrations were pre-incubated in the absence of light with 0.5 μg of recombinant human leukotriene A4 hydrolase enzyme (Cayman Chemical 10007817) in 50 μL assay buffer (50 mM Tris-HCl, 100 mM KCl). The reaction was stimulated by adding 50 μL 6 mM alanine-4-nitroanilide (Sigma Aldrich A9325) in assay buffer. The amount of amino-peptidase activity was measured by determining the change in absorbance at 405 nm due to 4-nitroanaline production and comparing the rate of change to a reference standard (Sigma Aldrich 185310). Amino-peptidase activity was compared to control samples and the level of inhibition was calculated. Compounds that augment peptidase activity are represented by negative values.

The test system of test [2] is LTC4 production in MC/9 cells. Description: MC/9 HPLC assay, inhibition of LTC4 production. The note with it: Mus musculus; for inhibition at 1 µM: MC9, Table 2 column 3, no concentration in head (1 μM according to b732), read-out: % Inhibition LTC4; for inhibition at 3 µM: MC9, 3 μM, A23187 stimulated. In kind it is cell-based. As for the experimental part:
(§1) Cultured MC/9 cells (3×10^6 cells) in 1 mL HBSS were pre-incubated with a series of concentrations of compound solubilized in DMSO for 30 minutes. Production of leukotrienes were stimulated with the addition of 1 μM calcium ionophore (A23187), diluted from a 4 mM DMSO stock in HBSS, and incubated at room temperature for 20 minutes. The reaction was stopped with the addition of 500 μL of methanol containing 20 ng/mL prostaglandin B2 as an internal standard. Samples were collected and stored at −20° C. at least 2 hr or overnight before centrifuged at 13,000 rpm for 15 minutes and loaded onto C18 SEP-PAK columns (Canadian Lifesciences IS12000) for solid phase extraction. The leukotrienes were analyzed by HPLC using an ACE C18 column (4.5 mm×150 mm, 5 m) eluted with acetonitrile/methanol/water mixture with H3PO4, pH 3.5 (37:26:37) with a flow rate of 1.8 mL/min. The amount of LTB4 (Cayman Chemical, 20110) and LTC4 (Cayman Chemical, 20210) were calculated based on reference standards and the level of inhibition of LTB4 production induced by the test compounds was calculated relative to control samples. The results are provided in Table 2, where Compound No. refers to the compounds identified in Table 1.

The test system of test [3] is LTB4 production in MC/9 cells. Description: MC/9 HPLC assay, inhibition of LTB4 production. It counts as cell-based. The note with it: Mus musculus, MC9, Table 2 column 4, no concentration in head (1 μM according to b732), read-out: % Inhibition LTB4. As for the experimental part: as §1

Take `CCC(=O)CCc1ccc(Oc2nc3ccccc3s2)cc1` [Compound 148, 1-[4-(1,3-benzothiazol-2-yloxy)phenyl]pentan-3-one]: in test [1], the inhibition (in general, the percentage by which the read-out fell short of the control) at 3 µM was less than 25%.
On to `COc1cc(CCC(O)(c2ccccc2)C(F)(F)F)ccc1Oc1nc2ccccc2s1` (centres unmarked) [Compound 133, 3-[4-(1,3-benzothiazol-2-yloxy)-3-methoxyphenyl]-1-(trifluoromethyl)-1-phenylpropan-1-ol], for which the inhibition at 1 µM in test [2] was less than 10%; in test [3], 30 to 50%.
The corresponding values for `COc1cc(CCC(C)=O)ccc1Oc1nc2ccccc2s1` [Compound 110, 4-[4-(1,3-benzothiazol-2-yloxy)-3-methoxyphenyl]butan-2-one] are less than 10% and less than 10%.
In test [2], `CC(c1ccc(Oc2nc3ccccc3s2)cc1)N1CCCC1` (centres unmarked) [Compound 162, 2-{4-[1-(pyrrolidin-1-yl)ethyl]phenoxy}-1,3-benzothiazole] registered an inhibition at 3 µM of less than 10%.
Consider `COc1cc(CCC(c2ccccc2)N2CCCC2)ccc1Oc1nc2ccccc2s1` (centres unmarked) [Compound 134, 2-{2-methoxyl-4-[3-phenyl-3-(pyrrolidin-1-yl)propyl]phenoxy}-1,3-benzothiazole], for which the inhibition at 1 µM in test [2] and in test [3] was 10 to 30% in each case.
Consider `COc1cc(CCC(C)(C)O)ccc1Oc1nc2ccccc2s1` [Compound 124, 4-[4-(1,3-benzothiazol-2-yloxy)-3-methoxyphenyl]-2-methylbutan-2-ol], for which the inhibition at 1 µM in test [2] fell in the range of 10 to 30%.
Consider `COc1cc(CCC(=O)c2ccccc2)ccc1Oc1nc2ccccc2s1` [Compound 131, 3-[4-(1,3-benzothiazol-2-yloxy)-3-methoxyphenyl]-1-phenylpropan-1-one], for which the inhibition at 3 µM in test [2] was 50 to 70%.
With `COc1cc(CCC(C)(C)O)ccc1Oc1nc2ccccc2o1` [Compound 126, 4-[4-(1,3-benzoxazol-2-yloxy)-3-methoxyphenyl]-2-methylbutan-2-ol], the results for the inhibition at 1 µM in test [2] and in test [3] were less than 10% and 10 to 30%, respectively.
With `Cc1nc2ccc(Oc3ccc(C(C)O)cc3)cc2s1` (centres unmarked) [Compound 171, 1-{4-[(2-methyl-1,3-benzothiazol-6-yl)oxy]phenyl}ethanol], in test [2], the inhibition at 3 µM fell in the range of 70 to 90%.
Same read-out and setting: the result for `Cc1nc2ccc(Oc3ccc(C(C)(O)C(F)(F)F)cc3)cc2s1` (centres unmarked) [Compound 170, 1,1,1-trifluoro-2-{4-[(2-methyl-1,3-benzothiazol-6-yl)oxy]phenyl}propan-2-ol] reads greater than 90%.
Regarding `COc1cc(CCC(C)(O)C(F)(F)F)ccc1Oc1nc2ccccc2s1` (centres unmarked) [Compound 111, 4-[4-(1,3-benzothiazol-2-yloxy)-3-methoxyphenyl]-1,1,1-trifluoro-2-methylbutan-2-ol], the inhibition at 3 µM in test [2] lay in the range of 70 to 90%.
On to `CCC(CCc1ccc(Oc2nc3ccccc3s2)c(OC)c1)N1CCOCC1` (centres unmarked) [Compound 136, 4-{1-[3-methoxy-4-(1,3-benzothiazol-2-yloxy)phenyl]pentan-3-yl}morpholine], for which the inhibition at 3 µM in test [2] was 10 to 30%.
For `CCC(N)CCc1ccc(Oc2nc3ccccc3s2)c(OC)c1` (centres unmarked) [Compound 135, 1-[4-(1,3-benzothiazol-2-yloxy)-3-methoxyphenyl]pentan-3-amine], the inhibition at 1 µM in test [2] was 10 to 30%; in test [3], 30 to 50%.
In test [2], `CCC(O)CCc1ccc(Oc2nc3ccccc3s2)c(OC)c1` (centres unmarked) [Compound 196, 1-[4-(1,3-benzothiazol-2-yloxy)-3-methoxyphenyl]pentan-3-ol] came in with an inhibition at 3 µM greater than 90%.
For the compound `CCC(O)(CCc1ccc(Oc2nc3ccccc3s2)c(Cl)c1)C(F)(F)F` (centres unmarked) [Compound 151, 1-[4-(1,3-benzothiazol-2-yloxy)-3-chlorophenyl]-3-(trifluoromethyl)pentan-3-ol], the inhibition at 1 µM in test [2] and in test [3] was 10 to 30% in each case.
`CCC(C)(O)CCc1ccc(Oc2nc3ccccc3o2)c(OC)c1` (centres unmarked) [Compound 127, 1-[4-(1,3-benzoxazol-2-yloxy)-3-methoxyphenyl]-3-methylpentan-3-ol]: the inhibition at 1 µM in test [2] and in test [3] was less than 10% throughout.
Consider `CCC(=O)CCc1ccc(Oc2nc3ccccc3s2)c(OC)c1` [Compound 101, 1-[4-(1,3-benzothiazol-2-yloxy)-3-methoxyphenyl]pentan-3-one], for which the inhibition at 1 µM in test [2] and in test [3] was less than 10% each time.
Take `CC(=O)CCc1ccc(OCc2ccc3ccccc3n2)cc1` [Compound 189, 4-{4-[(quinolinyl-2-yl)methoxy]phenyl}butan-2-one]: the inhibition at 3 µM in test [2] fell in the range of 70 to 90%.
On the same count and under the same terms, in the case of `CCNC(c1ccc(Oc2nc3ccccc3s2)cc1)C(F)(F)F` (centres unmarked) [Compound 168, 1-[4-(1,3-benzothiazol-2-yloxy)phenyl]-N-ethyl-2,2,2-trifluoroethanamine] it was less than 10%.
`CCC(O)(CCc1ccc(Oc2nc3ccccc3s2)c(OC2CCCC2)c1)C(F)(F)F` (centres unmarked) [Compound 116, 1-[4-(1,3-benzothiazol-2-yloxy)-3-(cyclopentyloxy)-phenyl]-3-(trifluoromethyl)-pentan-3-ol]: the inhibition at 1 µM in test [2] and in test [3] was less than 10% throughout.
With `CC(O)(CCc1ccc(Oc2nc3ccccc3s2)cc1)c1ccccc1` (centres unmarked) [Compound 144, 4-[4-(1,3-benzothiazol-2-yloxy)phenyl]-2-phenylbutan-2-ol], the figures for the inhibition at 1 µM in test [2] and in test [3] were 10 to 30% and greater than 90%, respectively.
Turning to `CC(C)(O)c1ccc(Oc2nc3ccccc3s2)cc1` [Compound 177, 2-[4-(1,3-benzothiazol-2-yloxy)phenyl]propan-2-ol], the inhibition at 3 µM in test [1] was greater than 75%.
With `CC(O)(CCc1ccc(Oc2nc3ccccc3s2)cc1)C(F)(F)F` (centres unmarked) [Compound 140, 4-[4-(1,3-benzothiazol-2-yloxy)phenyl]-1,1,1-trifluoro-2-methylbutan-2-ol], the inhibition at 1 µM in test [2] and in test [3] was less than 10% each time.
Regarding `CC(O)(CCc1ccc(Oc2nc3ccccc3s2)c(Cl)c1)C(F)(F)F` (centres unmarked) [Compound 175, 4-[4-(1,3-benzothiazol-2-yloxy)-3-chlorophenyl]-1,1,1-trifluoro-2-methylbutan-2-ol], the inhibition at 3 µM in test [1] was 50 to 75%.
Consider `CCOc1cc(CCC(O)(c2ccccc2)C(F)(F)F)ccc1Oc1nc2ccccc2s1` (centres unmarked) [Compound 130, 4-[3-ethoxy-4-(1,3-benzothiazol-2-yloxy)phenyl]-1,1,1-trifluoro-2-phenylbutan-2-ol], for which the figures for the inhibition at 1 µM in test [2] and in test [3] were less than 10% and 10 to 30%, respectively.
Take `COc1cc(CCC(C)O)ccc1Oc1nc2ccccc2s1` (centres unmarked) [Compound 122, 4-[4-(1,3-benzothiazol-2-yloxy)-3-methoxyphenyl]-butan-2-ol]: the inhibition at 1 µM in test [2] and in test [3] was 30 to 50% throughout.
Turning to `CCC(C)(O)c1ccc(Oc2nc3ccccc3s2)cc1` (centres unmarked) [Compound 161, 2-[4-(1,3-benzothiazol-2-yloxy)phenyl]butan-2-ol], in test [2], the inhibition at 3 µM is less than 10%.
On the same count and under the same terms, the result for `CCOc1cc(CCC(=O)CC)ccc1Oc1nc2ccccc2s1` [Compound 120, 1-[4-(1,3-benzothiazol-2-yloxy)-3-ethoxyphenyl]-pentan-3-one] reads 70 to 90%.
On to `CCC(C)(O)CCc1ccc(Oc2nc3ccccc3s2)cc1` (centres unmarked) [Compound 143, 1-[4-(1,3-benzothiazol-2-yloxy)phenyl]-3-methylpentan-3-ol], for which the inhibition at 1 µM in test [2] was 10 to 30%; in test [3], greater than 90%.
Turning to `CC(=O)c1ccc(Oc2nc3ccccc3s2)cc1` [Compound 159, 1-[4-(1,3-benzothiazol-2-yloxy)phenyl]ethanone], the inhibition at 3 µM in test [2] was in the range of 10 to 30%.
